Laboratory results taken from ChEMBL document CHEMBL1201862, “PubChem BioAssay data set” (2004).
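A five-concentration, 48-hour dose response in 96-well plates underlies each endpoint, interpolated linearly between surrounding concentrations. Abbreviation: GI50, concentration required for 50% inhibition of growth.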 The source made the active and inactive calls. Rule as the data show it: active = GI50 up to about 1.1 µM and inactive = higher.

Legend:
Assay in all cases: growth of human tumour cells (NCI), 48 h
NCI-H460 = system: NCI-H460
HL-60 = system: HL-60
Malme-3M = system: Malme-3M
CAKI-1 = system: CAKI-1
OVCAR-3 = system: OVCAR-3
SNB-19 = system: SNB-19
TK-10 = system: TK-10
PC-3 = system: PC-3
HOP-92 = system: HOP-92
Hs-578T = system: Hs-578T
SR = system: SR
CCRF-CEM = system: CCRF-CEM
SNB-75 = system: SNB-75
SK-MEL-2 = system: SK-MEL-2
DU-145 = system: DU-145
RXF 393 = system: RXF 393
OVCAR-8 = system: OVCAR-8
A549 = system: A549
HCT-15 = system: HCT-15

Row | Compound | GI50 (NCI-H460) | GI50 (HL-60) | GI50 (Malme-3M) | GI50 (CAKI-1) | GI50 (OVCAR-3) | GI50 (SNB-19) | GI50 (TK-10) | GI50 (PC-3) | GI50 (HOP-92) | GI50 (Hs-578T) | GI50 (SR) | GI50 (CCRF-CEM) | GI50 (SNB-75) | GI50 (SK-MEL-2) | GI50 (DU-145) | GI50 (RXF 393) | GI50 (OVCAR-8) | GI50 (A549) | GI50 (HCT-15)
1 | c1ccc(CN2CCCN3CCN(CCCN(Cc4ccccc4)CC3)CC2)cc1 | 39.4 µM (inactive) | 24.7 µM (inactive) | 0.227 µM (active) | > 100 µM (inactive) | 27.2 µM (inactive) | 35.5 µM (inactive) | 55.6 µM (inactive) | 30.5 µM (inactive) | 92 µM (inactive) | > 100 µM (inactive) | 43 µM (inactive) | 46.9 µM (inactive) | 32 µM (inactive) | 22.2 µM (inactive) | 68.5 µM (inactive) | > 100 µM (inactive) | 50.9 µM (inactive) | 69.5 µM (inactive) | > 100 µM
2 | CC(Oc1ccccc1Cl)C(=O)NN1C(=O)CC(=O)N(c2ccc(Cl)cc2)C1=S (centres undefined) | 39.3 µM (inactive) | 3.21 µM (inactive) | > 100 µM (inactive) | 40.7 µM (inactive) | 38.4 µM (inactive) | 66.5 µM (inactive) | 54.7 µM (inactive) | 38.1 µM (inactive) | 22.6 µM (inactive) | 49.8 µM (inactive) | 8.77 µM (inactive) | < 0.01 µM (active) | 47.5 µM (inactive) | 27.9 µM (inactive) | 34.6 µM (inactive) | 30 µM (inactive) | 38.8 µM (inactive) | 36.5 µM (inactive) | 36.6 µM
3 | N#Cc1c(N2CCCC2)nsc1NCc1ccccc1 | > 100 µM (inactive) | > 100 µM (inactive) | > 100 µM (inactive) | > 100 µM (inactive) | > 100 µM (inactive) | > 100 µM (inactive) | > 100 µM (inactive) | > 100 µM (inactive) | 54.1 µM (inactive) | 60.4 µM (inactive) | > 100 µM (inactive) | > 100 µM (inactive) | > 100 µM (inactive) | > 100 µM (inactive) | > 100 µM (inactive) | 15 µM (inactive) | > 100 µM (inactive) | > 100 µM (inactive) | > 100 µM
4 | CC1=C(/C=C/Cl)CC(Cl)C(C)(Cl)C1 (centres undefined) | > 100 µM (inactive) | 20.4 µM (inactive) | > 100 µM (inactive) | > 100 µM (inactive) | – | > 100 µM (inactive) | > 100 µM (inactive) | > 100 µM (inactive) | 53 µM (inactive) | > 100 µM (inactive) | > 100 µM (inactive) | 19.6 µM (inactive) | > 100 µM (inactive) | > 100 µM (inactive) | > 100 µM (inactive) | 10.6 µM (inactive) | > 100 µM (inactive) | > 100 µM (inactive) | > 100 µM
5 | O=C1C=CC(=O)N1c1ccc2c(c1)Cc1cc(NC(=O)C(F)(F)F)ccc1-2 | > 100 µM (inactive) | 12.2 µM (inactive) | 19.8 µM (inactive) | 16 µM (inactive) | 15.7 µM (inactive) | > 47 µM (inactive) | 3 µM (inactive) | 17.1 µM (inactive) | 16.8 µM (inactive) | 21.1 µM (inactive) | 2.74 µM (inactive) | 3.96 µM (inactive) | 16.1 µM (inactive) | 18.4 µM (inactive) | 16 µM (inactive) | 5.66 µM (inactive) | 17.7 µM (inactive) | 17.9 µM (inactive) | 10.6 µM
6 | Cc1[nH]nc(C(=O)N/N=C/c2ccccc2Cl)c1/N=N\N(C)C | – | 4.82 µM (inactive) | > 39.4 µM (inactive) | > 32.9 µM (inactive) | 20.8 µM (inactive) | > 100 µM (inactive) | 56.6 µM (inactive) | 5.7 µM (inactive) | > 23.9 µM (inactive) | 2.09 µM (inactive) | 0.171 µM (active) | 2.59 µM (inactive) | > 31 µM (inactive) | > 100 µM (inactive) | 4.28 µM (inactive) | > 37.9 µM (inactive) | 7.98 µM (inactive) | > 100 µM (inactive) | > 100 µM
7 | C=C(Br)CNC(=O)Nc1ccc(Cl)c(Cl)c1 | 26.5 µM (inactive) | 15.9 µM (inactive) | 20.1 µM (inactive) | 20.4 µM (inactive) | 13.4 µM (inactive) | 21.7 µM (inactive) | 25.8 µM (inactive) | 11.2 µM (inactive) | 19.9 µM (inactive) | 22.7 µM (inactive) | 30.9 µM (inactive) | 19.3 µM (inactive) | 21.3 µM (inactive) | 12.6 µM (inactive) | 23.6 µM (inactive) | 18.5 µM (inactive) | – | 21.5 µM (inactive) | 30.5 µM
8 | COc1cc(C2c3cc4c(cc3OC(N3CCOCC3)C2C)OCO4)cc(OC)c1OC (centres undefined) | 1.34 µM (inactive) | 0.412 µM (active) | 3.79 µM (inactive) | 0.522 µM (active) | 0.589 µM (active) | 0.838 µM (active) | 4.42 µM (inactive) | 1.19 µM (inactive) | 0.7 µM (active) | 0.226 µM (active) | 0.466 µM (active) | 0.457 µM (active) | 5.19 µM (inactive) | 2.02 µM (inactive) | 0.368 µM (active) | 0.282 µM (active) | 1.62 µM (inactive) | 1.56 µM (inactive) | 0.418 µM
9 | COC1(O)C(=O)c2ccccc2OC1(OC)c1ccccc1 (centres undefined) | 40.4 µM (inactive) | 50.4 µM (inactive) | > 100 µM (inactive) | > 100 µM (inactive) | > 100 µM (inactive) | > 100 µM (inactive) | > 100 µM (inactive) | > 100 µM (inactive) | > 100 µM (inactive) | > 100 µM (inactive) | 50.4 µM (inactive) | 46.8 µM (inactive) | > 100 µM (inactive) | > 100 µM (inactive) | > 100 µM (inactive) | > 100 µM (inactive) | > 100 µM (inactive) | > 100 µM (inactive) | 31.8 µM
10 | COc1c(OC)c(OC)c2c(=O)cc(-c3ccc(OC(C)C)cc3)oc2c1OC | 27.4 µM (inactive) | 2.07 µM (inactive) | 29.4 µM (inactive) | 20.5 µM (inactive) | 17.9 µM (inactive) | > 38.9 µM (inactive) | > 38.6 µM (inactive) | 18.8 µM (inactive) | 8.17 µM (inactive) | 23.1 µM (inactive) | 0.369 µM (active) | 6.37 µM (inactive) | > 35.2 µM (inactive) | 20.8 µM (inactive) | 26.1 µM (inactive) | > 33.5 µM (inactive) | 14.7 µM (inactive) | 24.2 µM (inactive) | 19.4 µM
11 | CCOC(=O)c1ccc(/N=c2\oc3ccc(OC)cc3cc2-c2nc3ccccc3[nH]2)cc1 | > 100 µM (inactive) | > 100 µM (inactive) | > 100 µM (inactive) | > 100 µM (inactive) | > 100 µM (inactive) | 42.9 µM (inactive) | > 100 µM (inactive) | > 100 µM (inactive) | > 100 µM (inactive) | 79.8 µM (inactive) | 59.3 µM (inactive) | > 100 µM (inactive) | 14.1 µM (inactive) | > 100 µM (inactive) | > 100 µM (inactive) | 40.6 µM (inactive) | 4.21 µM (inactive) | 51.2 µM (inactive) | > 100 µM
12 | [O-]c1c2cc(-[n+]3c(-c4ccccc4)cc(-c4ccccc4)cc3-c3ccccc3)cc1CO[C@@H](c1ccccc1)[C@H](c1ccccc1)OCCOCCO[C@@H](c1ccccc1)[C@H](c1ccccc1)OC2 | 0.0363 µM (active) | 0.0204 µM (active) | 0.0407 µM (active) | 0.335 µM (active) | 0.0324 µM (active) | 0.0489 µM (active) | 0.24 µM (active) | 0.039 µM (active) | 0.0857 µM (active) | 0.0652 µM (active) | 0.0309 µM (active) | 0.048 µM (active) | 0.0486 µM (active) | 0.0394 µM (active) | 0.284 µM (active) | 0.108 µM (active) | 0.0351 µM (active) | 0.0451 µM (active) | 0.319 µM
13 | C/C(=N\c1c2ccccc2nc2ccccc12)N(C)C | – | 3.28 µM (inactive) | 32.9 µM (inactive) | 24.3 µM (inactive) | 14.4 µM (inactive) | 34 µM (inactive) | 21.9 µM (inactive) | 14.6 µM (inactive) | 10.6 µM (inactive) | 22 µM (inactive) | 3.47 µM (inactive) | 8.87 µM (inactive) | 24.1 µM (inactive) | 20 µM (inactive) | 29 µM (inactive) | 23.8 µM (inactive) | 13.3 µM (inactive) | 28.2 µM (inactive) | 28.6 µM
14 | NC(CC(=O)Nc1cc(C(F)(F)F)ccc1Cl)=NO | > 100 µM (inactive) | > 100 µM (inactive) | > 100 µM (inactive) | > 100 µM (inactive) | > 100 µM (inactive) | > 100 µM (inactive) | > 100 µM (inactive) | > 100 µM (inactive) | > 100 µM (inactive) | > 100 µM (inactive) | > 100 µM (inactive) | – | > 100 µM (inactive) | > 100 µM (inactive) | > 100 µM (inactive) | > 100 µM (inactive) | > 100 µM (inactive) | > 100 µM (inactive) | > 100 µM
15 | O=c1ccc2c(Cl)cccc2o1 | > 100 µM (inactive) | > 100 µM (inactive) | > 100 µM (inactive) | > 100 µM (inactive) | > 100 µM (inactive) | > 100 µM (inactive) | > 100 µM (inactive) | > 100 µM (inactive) | > 100 µM (inactive) | 75.5 µM (inactive) | > 100 µM (inactive) | > 100 µM (inactive) | > 100 µM (inactive) | > 100 µM (inactive) | > 100 µM (inactive) | > 100 µM (inactive) | > 100 µM (inactive) | > 100 µM (inactive) | –
